Results from patent publication US20120295923A1, “Aminocyclohexanes and Aminotetrahydropyrans and Related Compounds As Gamma-Secretase Modulators” (PFIZER INC., priority 2010, published 2012).
Counter-ions that a name gives are not always drawn.

Test system: γ-secretase; production of amyloid beta protein Aβ(1-42)
Assay: Cell-Based γ-Secretase Assay with ELISA Readout
Settings: human WT-APP overexpressing CHO cells; footnote 8: single determination; read-out: Aβ 42B IC50 (nM) (Geometric Mean of 2-8 Determinations)
Description: The ability of compounds to modulate production of amyloid beta protein A6(1-42) was determined using human WT-APP overexpressing CHO cells. Cells were plated at 22,000 cells/100 μL well in 96 well tissue culture treated, clear plates (Falcon) in DMEM/F12 based medium and incubated for 24 hours at 37° C. Compounds for testing were diluted in 100% DMSO to achieve an eleven points, half log, dose response for IC50 determinations. Compounds were added in fresh medium to achieve 1% final DMSO. Appropriate vehicle and inhibitor controls were added to obtain maximum and minimum inhibition values for the assay before the plates were incubated for about 24 hours at 37° C.
Coating of ELISA assay plates was initiated by addition of 50 μL/well of an in-house Aβ(1-42) specific antibody at (4 μg/mL) in 0.1 M NaHCO3 (pH 9.0) into black 384-well Maxisorp® plates (Nunc) and incubated overnight at 4° C. The capture antibody was then aspirated from the ELISA assay plates and 100 μL/well of Blocking Buffer (Dulbecco's PBS, 1.5% BSA (Sigma A7030)) added. Ambient temperature incubation was allowed to proceed for a minimum of two hours before washing 2×100 μL with Wash Buffer (Dulbecco's PBS, 0.05% Tween 20). Assay Buffer (Dulbecco's PBS, 1.0% BSA (Sigma A7030), 0.05% Tween 20) 20 μL/well was then added.
After incubation overnight at 37° C., 5% CO2, 40 μL (in duplicate) of experimental conditioned media were transferred into wells of the blocked ELISA plates containing the capture antibody, followed by overnight incubation at 4° C.
After overnight incubation of the ELISA assay plates at 4° C., unbound Aβ peptides were removed thorough (4×100 μL) washes with Wash Buffer. Europium (Eu) labeled (custom labeled, Perkin Elmer) Aβ(1-16) 6e10 Monoclonal Antibody (Covance #SIG-39320 was added, (50 μL/well Eu-6e10 @ 1:5000, 20 uM EDTA) in Assay Buffer. Incubation at ambient temperature for a minimum of 2 hours was followed by (4×100 μL) washes with Wash Buffer, before 50 μL/well of Delfia Enhancement Solution (PerkinElmer) was added. Following a one hour ambient temperature incubation, the plates were read on an EnVision plate reader (PerkinElmer) using standard DELFIA TRF settings. Data analysis including inhibitory IC50 determination was performed using nonlinear regression fit analysis (in-house software) and the appropriate plate mean values for the maximum and minimum inhibition controls.

Row | SMILES | IC50 [nM]
1 | CC(C)CCN(CC1CCCCO1)[C@@H]1CC[C@@H](CC(=O)O)C[C@H]1c1ccc(C(F)(F)F)cc1 (stereo partly drawn) [Example 17, {[1R,3S,4R)-4-[(3-methylbutyl) (tetrahydro-2H-pyran-2-ylmethyl)amino]-3-[4-(trifluoromethyl)phenyl]cyclohexyl} acetic acid] | 1510
2 | O=C(O)C[C@@H]1CC[C@@H](N(CC2CCCC2)CC2CCCC2)[C@H](c2cccc(C(F)(F)F)c2)O1 [Example 20, {(2S,5R,6S)-5-[bis(cyclopentyl-methyl)amino]-6-[3-(trifluoromethyl)phenyl]tetrahydro-2H-pyran-2-yl} acetic acid] | 959
3 | O=C(O)C[C@@H]1CC[C@@H](N(Cc2ccc(F)cc2)CC2CCCC2)[C@H](c2ccc(C(F)(F)F)cc2)C1 [Example 26, {(1R,3S,4R)-4-[(cyclopentyl-methyl)(4-fluorobenzyl)amino]-3-[4-(trifluoromethyl)phenyl]cyclohexyl} acetic acid] | 190
4 | O=C(O)C[C@@H]1CC[C@@H](N(CC2CCCCC2)CC2CCCCC2)[C@H](c2ccc(C(F)(F)F)cc2)C1 [Example 15, {(1R,3S,4R)-4-[bis(cyclohexylmethyl)amino]-3-[4-(trifluoro-methyl)phenyl]cyclohexyl}acetic acid] | 107
5 | CC1CN([C@@H]2CC[C@@H](CC(=O)O)C[C@H]2c2ccc(C(F)(F)F)cc2)CC2(CCCCC2)C1 (stereo partly drawn) [Example 23, {(1R,3S,4R)-4-(4-methyl-2-azaspiro[5.5]undec-2-yl)-3-[4-(trifluoromethyl)phenyl]cyclohexyl} acetic acid] | 868

Same assay, conditions: human WT-APP overexpressing CHO cells; geometric mean of 2-4 determinations unless otherwise indicated (footnote 10: 6-8; footnote 14: single determination); read-out: Aβ 42B IC50

Row | SMILES | IC50 [nM]
6 | CC(CN(CC1CCCC1)[C@@H]1CC[C@@H](CC(=O)O)C[C@H]1c1ccc(Cl)cc1)C(F)(F)F (stereo partly drawn) [Example 51, {(1R,3S,4R)-3-(4-chlorophenyl)-4-[(cyclopentylmethyl)(3,3,3-trifluoro-2-methylpropyl)amino]cyclohexyl}acetic acid, trifluoroacetate salt] | 382
7 | O=C(O)C[C@@H]1CC[C@@H](N(CC2CCCC2)CC2CCC2)[C@H](c2ccc(C(F)(F)F)cc2)C1 [Example 50, {(1R,3S,4R)-4-[(cyclobutylmethyl) (cyclopentyl)methyl)amino]-3-[4-(trifluoromethyl)phenyl] cyclohexyl}acetic acid, ammonium salt] | 463
8 | CC(C)(C#N)CCN(CC1CCCC1)[C@@H]1CC[C@@H](CC(=O)O)C[C@H]1c1ccc(C(F)(F)F)cc1 [Example 37, {(1R,3S,4R)-4-[(3-cyano-3-methylbutyl)(cyclopentylmethyl)amino]-3-[4-(trifluoromethyl)phenyl]cyclohexyl}acetic acid, trifluoroacetate salt] | 2170
9 | CC(C)CN(CC1CCCC1)[C@@H]1CC[C@@H](CC(=O)O)C[C@H]1c1ccc(C(F)(F)F)cc1 [Example 44, {(1R,3S,4R)-4-[(cyclopentylmethyl)(isobutyl)amino]-3-[4-(trifluoromethyl)phenyl]cyclohexyl}acetic acid, trifluoroacetic salt] | 318
10 | N#Cc1ccc([C@@H]2O[C@H](CC(=O)O)CC[C@H]2N(CC2CCCC2)CC2CCCC2)cc1 [Example 46, [(2S,5R,6S)-5-[bis(cyclopentylmethyl)amino]-6-(4-cyanophenyl)tetrahydro-2H-pyran-2-yl]acetic acid, ammonium salt] | 2550
11 | O=C(O)C[C@@H]1CC[C@@H](N(Cc2ccc3c(c2)CCO3)CC2(F)CCCCC2)[C@H](c2ccc(C(F)(F)F)cc2)C1 [Example 61, {(1R,3S,4R)-4-{(2,3-dihydro-1-benzofuran-5-ylmethyl)[(1-fluorocyclohexyl)methyl]amino}-3-[4-(trifluoromethyl)phenyl]cyclohexyl}acetic acid, trifluoroacetate salt] | 607
12 | Cc1nc(CN(CC2CCCC2)[C@@H]2CC[C@@H](CC(=O)O)C[C@H]2c2ccc(C(F)(F)F)cc2)co1 [Example 53, {(1R,3S,4R)-4-{(cyclopentylmethyl)[(2-methyl-1,3-oxazol-4-yl)methyl]amino}-3-[4-(trifluoromethyl)phenyl]cyclohexyl}acetic acid, ammonium salt] | 959
13 | CCCc1nscc1CN(CC(C)C)[C@@H]1CC[C@@H](CC(=O)O)C[C@H]1c1ccc(C(F)(F)F)cc1 [Example 59, {(1R,3S,4R)-4-{isobutyl[(3-propylisothiazol-4-yl)methyl]amino}-3-[4-(trifluoromethyl)phenyl]cyclohexyl}acetic acid, trifluoroacetate salt] | 349
14 | O=C(O)C[C@@H]1CC[C@@H](N(CCC2CCCCC2)CC2CCCC2)[C@H](c2ccc(C(F)(F)F)cc2)C1 [Example 40, {(1R,3S,4R)-4-[(2-cyclohexylethyl)(cyclopentyl-methyl)amino]-3-[4-(trifluoromethyl)phenyl]cyclohexyl}acetic acid, trifluoroacetate salt] | 621
15 | CC(C)CCN(C1CCOCC1)[C@@H]1CC[C@@H](CC(=O)O)C[C@H]1c1ccc(C(F)(F)F)cc1 [Example 30, {(1R,3S,4R)-4-[(3-methylbutyl)(tetrahydro-2H-pyran-4-yl)amino]-3-[4-(trifluoromethyl)phenyl]cyclohexyl}acetic acid, ammonium salt] | 7310
16 | CC(C)CN(CC1=CCC2CC1C2(C)C)[C@@H]1CC[C@@H](CC(=O)O)C[C@H]1c1ccc(C(F)(F)F)cc1 (stereo partly drawn) [Example 63, {(1R,3S,4R)-4-{[(6,6-dimethylbicyclo[3.1.1]hept-2-en-2-yl)methyl](isobutyl)amino}-3-[4-(trifluoromethyl)phenyl]cyclohexyl}acetic acid, trifluoroacetate salt] | 336
17 | CCC(C)CN(CC1CCCC1)[C@@H]1CC[C@@H](CC(=O)O)C[C@H]1c1ccc(C(F)(F)F)cc1 (stereo partly drawn) [Example 34, {(1R,3S,4R)-4-[(cyclopentylmethyl)(2-methylbutyl)amino]-3-[4-(trifluoromethyl)phenyl]cyclohexyl}acetic acid, ammonium salt] | 359
18 | O=C(O)C[C@@H]1CC[C@@H](N(CCC2CCCCO2)CC2CCCC2)[C@H](c2ccc(C(F)(F)F)cc2)C1 (stereo partly drawn) [Example 41, {(1R,3S,4R)-4-{(cyclopentylmethyl)[2-(tetrahydro-2H-pyran-2-yl)ethyl]amino}-3-[4-(trifluoromethyl)phenyl]cyclohexyl}acetic acid, trifluoroacetate salt] | 5630

Same assay, conditions: human WT-APP overexpressing CHO cells; geometric mean of 2 determinations unless otherwise indicated (footnote 2: 6-14 determinations); read-out: Aβ 42B IC50

Row | SMILES | IC50 [nM]
19 | O=C(O)C[C@@H]1CC[C@@H](N(Cc2ccccc2)CC2CCCC2)[C@H](c2ccc(C(F)(F)F)cc2)C1 [Example 2, {(1R,3S,4R)-4-[benzyl(cyclopentylmethyl)amino]-3-[4-(trifluoromethyl)phenyl]cyclohexyl}acetic acid] | 139
